Measurements published in the supplement of paper PMC10307832.

Experiments:
Experiment in all cases: relative viability (nuclei count vs DMSO), 5 days (fraction); higher = more cells survive
ABC-1 = tested on: ABC-1
Procedure, shortened: (§1)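 Medians of duplicate plates are given as relative viability. That measure is the nuclei count in treated wells divided by the count in vehicle wells. Counts were taken on 4× images of lung cancer cell lines in 1536-well plates, 5 days after pin-tool dosing the day after seeding with one drug alone or a fixed anchor-drug dose plus five library-drug doses (not always all listed) in √10 steps.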

CAL-12T = tested on: CAL-12T
Procedure, shortened: as §1

COR-L23 = tested on: COR-L23
Procedure, shortened: as §1

EMC-BAC-2 = tested on: EMC-BAC-2
Procedure, shortened: as §1

HARA = tested on: HARA
Procedure, shortened: as §1

HCC-366 = tested on: HCC-366
Procedure, shortened: as §1

HOP-62 = tested on: HOP-62
Procedure, shortened: as §1

LK-2 = tested on: LK-2
Procedure, shortened: as §1

NCI-H1437 = tested on: NCI-H1437
Procedure, shortened: as §1

NCI-H1650 = tested on: NCI-H1650
Procedure, shortened: as §1

NCI-H1651 = tested on: NCI-H1651
Procedure, shortened: as §1

NCI-H1734 = tested on: NCI-H1734
Procedure, shortened: as §1

NCI-H1755 = tested on: NCI-H1755
Procedure, shortened: as §1

NCI-H2347 = tested on: NCI-H2347
Procedure, shortened: as §1

NCI-H3122 = tested on: NCI-H3122
Procedure, shortened: as §1

NCI-H441 = tested on: NCI-H441
Procedure, shortened: as §1

NCI-H596 = tested on: NCI-H596
Procedure, shortened: as §1

NCI-H727 = tested on: NCI-H727
Procedure, shortened: as §1

PC-3 [JPC-3] = tested on: PC-3 [JPC-3]
Procedure, shortened: as §1

RERF-LC-KJ = tested on: RERF-LC-KJ
Procedure, shortened: as §1

SK-LU-1 = tested on: SK-LU-1
Procedure, shortened: as §1

UMC-11 = tested on: UMC-11
Procedure, shortened: as §1

CN1CCN(CCOc2cc(OC3CCOCC3)c3c(Nc4c(Cl)ccc5c4OCO5)ncnc3c2)CC1 [Saracatinib] + O=C(c1cc(Cc2n[nH]c(=O)c3ccccc23)ccc1F)N1CCN(C(=O)C2CC2)CC1 [Olaparib] (partner 8 µM)
relative viability (ABC-1; first compound 0.02 µM): 0.568
relative viability (ABC-1; first compound 0.2 µM): 0.941
relative viability (ABC-1; first compound 0.6325 µM): 0.706
relative viability (ABC-1; first compound 2 µM): 0.751
relative viability (CAL-12T; first compound 0.02 µM): 0.787
relative viability (CAL-12T; first compound 0.2 µM): 0.682
relative viability (CAL-12T; first compound 0.6325 µM): 0.825
relative viability (CAL-12T; first compound 2 µM): 0.701
relative viability (COR-L23; first compound 0.02 µM): 0.447
relative viability (COR-L23; first compound 0.2 µM): 0.319
relative viability (COR-L23; first compound 0.6325 µM): 0.346
relative viability (COR-L23; first compound 2 µM): 0.312
relative viability (EMC-BAC-2; first compound 0.02 µM): 0.489
relative viability (EMC-BAC-2; first compound 0.2 µM): 0.418
relative viability (EMC-BAC-2; first compound 0.6325 µM): 0.562
relative viability (EMC-BAC-2; first compound 2 µM): 0.474
relative viability (HARA; first compound 0.02 µM): 0.891
relative viability (HARA; first compound 0.2 µM): 0.631
relative viability (HARA; first compound 0.6325 µM): 0.878
relative viability (HARA; first compound 2 µM): 0.311
relative viability (HCC-366; first compound 0.02 µM): 0.343
relative viability (HCC-366; first compound 0.2 µM): 0.0912
relative viability (HCC-366; first compound 0.6325 µM): 0.264
relative viability (HCC-366; first compound 2 µM): 0.199
relative viability (HOP-62; first compound 0.02 µM): 0.38
relative viability (HOP-62; first compound 0.2 µM): 0.417
relative viability (HOP-62; first compound 0.6325 µM): 0.204
relative viability (HOP-62; first compound 2 µM): 0.39
relative viability (LK-2; first compound 0.02 µM): 0.802
relative viability (LK-2; first compound 0.2 µM): 0.505
relative viability (LK-2; first compound 0.6325 µM): 0.437
relative viability (LK-2; first compound 2 µM): 0.388
relative viability (NCI-H1437; first compound 0.02 µM): 0.68
relative viability (NCI-H1437; first compound 0.2 µM): 0.648
relative viability (NCI-H1437; first compound 0.6325 µM): 0.618
relative viability (NCI-H1437; first compound 2 µM): 0.658
relative viability (NCI-H1650; first compound 0.02 µM): 0.784
relative viability (NCI-H1650; first compound 0.2 µM): 0.636
relative viability (NCI-H1650; first compound 0.6325 µM): 0.624
relative viability (NCI-H1650; first compound 2 µM): 0.569
relative viability (NCI-H1651; first compound 0.02 µM): 0.191
relative viability (NCI-H1651; first compound 0.2 µM): 0.16
relative viability (NCI-H1651; first compound 0.6325 µM): 0.162
relative viability (NCI-H1651; first compound 2 µM): 0.165
relative viability (NCI-H1734; first compound 0.02 µM): 0.592
relative viability (NCI-H1734; first compound 0.6325 µM): 0.515
relative viability (NCI-H1734; first compound 2 µM): 0.547
relative viability (NCI-H1755; first compound 0.02 µM): 0.876
relative viability (NCI-H1755; first compound 0.2 µM): 0.751
relative viability (NCI-H1755; first compound 0.6325 µM): 0.872
relative viability (NCI-H1755; first compound 2 µM): 0.786
relative viability (NCI-H2347; first compound 0.02 µM): 0.571
relative viability (NCI-H2347; first compound 0.2 µM): 0.428
relative viability (NCI-H2347; first compound 0.6325 µM): 0.622
relative viability (NCI-H2347; first compound 2 µM): 0.551
relative viability (NCI-H3122; first compound 0.02 µM): 0.62
relative viability (NCI-H3122; first compound 0.2 µM): 0.485
relative viability (NCI-H3122; first compound 0.6325 µM): 0.682
relative viability (NCI-H3122; first compound 2 µM): 0.528
relative viability (NCI-H441; first compound 0.02 µM): 0.57
relative viability (NCI-H441; first compound 0.2 µM): 0.536
relative viability (NCI-H441; first compound 0.6325 µM): 0.634
relative viability (NCI-H441; first compound 2 µM): 0.532
relative viability (NCI-H596; first compound 0.02 µM): 0.727
relative viability (NCI-H596; first compound 0.2 µM): 0.589
relative viability (NCI-H596; first compound 0.6325 µM): 0.684
relative viability (NCI-H596; first compound 2 µM): 0.546
relative viability (NCI-H727; first compound 0.02 µM): 0.687
relative viability (NCI-H727; first compound 0.2 µM): 0.51
relative viability (NCI-H727; first compound 0.6325 µM): 0.534
relative viability (NCI-H727; first compound 2 µM): 0.578
relative viability (PC-3 [JPC-3]; first compound 0.02 µM): 1.19
relative viability (PC-3 [JPC-3]; first compound 0.2 µM): 0.993
relative viability (PC-3 [JPC-3]; first compound 0.6325 µM): 0.746
relative viability (PC-3 [JPC-3]; first compound 2 µM): 0.55
relative viability (RERF-LC-KJ; first compound 0.02 µM): 1.09
relative viability (RERF-LC-KJ; first compound 0.2 µM): 0.841
relative viability (RERF-LC-KJ; first compound 0.6325 µM): 0.9
relative viability (RERF-LC-KJ; first compound 2 µM): 0.977
relative viability (SK-LU-1; first compound 0.02 µM): 0.416
relative viability (SK-LU-1; first compound 0.2 µM): 0.359
relative viability (SK-LU-1; first compound 0.6325 µM): 0.33
relative viability (SK-LU-1; first compound 2 µM): 0.28
relative viability (UMC-11; first compound 0.02 µM): 0.42
relative viability (UMC-11; first compound 0.2 µM): 0.306
relative viability (UMC-11; first compound 0.6325 µM): 0.362
relative viability (UMC-11; first compound 2 µM): 0.351
